According to patent US11298362B2, “Combination therapy with Notch and CDK4/6 inhibitors for the treatment of cancer” (Eli Lilly and Company, priority 2016, dated 2022):

Assays:
[1] = system: pRB (phospho-ser780-Rb), total RB, Topo IIa and pHH3 in H2122 cells; test: Cell cycle biomarker expression by immunoblotting in H2122 cells; format: cell-based, human
Description: Time Course Study: NCI-H441 and NCI-H2122 NSCLC cell lines are treated for 4 or 24 hours with 1 μM of Compound A and harvested to evaluate effects on cell cycle biomarker expression which includes the cell cycle inhibitors p21 and p27 as well as markers for cell cycle progression including phospho-histone H3 (pHH3) (a marker for M-phase), Topo 2A (a marker for S-phase), phospho_ser780-RB (a marker for G1 and, as well as, for CDK4/6 inhibition) and cyclin Dl. […] […] Cells are harvested after 24 hours of treatment and evaluated for expression of various cell cycle biomarkers by immunoblotting. […] RB is the direct kinase target of CDK4/6 so inhibition of pRB provides a direct measure of CDK4/6 inhibition. The inhibition of Topo IIA and pHH3 are indicative of the inhibition of cell cycle progression through S and M phases of the cell cycle, respectively. […] The same study is carried out in the H441 cell line. […] RB is the direct kinase target of CDK4/6 so inhibition of pRB provides a direct measure of CDK4/6 inhibition. The inhibition of Topo IIA and pHH3 are indicative of the inhibition of cell cycle progression through S and M phases of the cell cycle, respectively.

NCI-H2122 = test: Cell growth inhibition by CellTiter-Glo assay, NCI-H2122; format: cell-based; details: Homo sapiens, Compound B alone, 48 hours
Description: (§1) The non-small cell lung cancer (NSCLC) lines NCI-H441 (ATCC® as HTB-174) and NCI-H2122 (ATCC® as CRL-5985) are grown in RPMI-1640 medium supplemented with 2 mM L-glutamine, 10 mM HEPS, 1 mM sodium pyruvate, 4500 mg/L glucose, 1500 mg/L sodium bicarbonate, and 10% fetal bovine serum (FBS) at 37° C. in 5% CO2 with humidity in the atmosphere. The cells are subcultured according to ATCC procedures and treated with increasing concentrations of abemaciclib mesylate (Compound B) either in the presence or absence of 1 μM of Compound A. The growth of the cells is quantified 48 hours later by a CellTiter-Glo assay (Promega). Growth inhibition at each concentration is calculated and IC50 values are determined from the 4-parameter concentration-response curves.
(§2) NCI-H2122 is a human adenocarcinoma non-small cell lung cancer cell line (ATCC® as CRL-5985). The cells are grown in culture media at 37° C. in 5% CO2 with humidity in the atmosphere. Cell culture media for NCI-H2122 is RPMI-1640 with 2 mM L-glutamine, 10 mM 2-[4-(2-hydroxyethyl)piperazin-1-yl]ethanesulfonic acid (HEPES), 1 mM sodium pyruvate, 4500 mg/L glucose, 1500 mg/L sodium bicarbonate, and 10% fetal bovine serum (FBS).

NCI-H441 = test: Cell growth inhibition by CellTiter-Glo assay, NCI-H441; format: cell-based; details: Homo sapiens, Compound B alone, 48 hours
Description: as §1

NCI-H2122 xenograft = test: Human NCI-H2122 xenograft tumor growth in athymic nude mice; format: in vivo
Description: as §2
To evaluate in vivo efficacy 5×10^6 NCI-H2122 cells in a 1:1 Matrigel® mix (0.2 mL volume) are implanted by subcutaneous injection in the hind leg of 6-8 weeks of age athymic nude female mice (Harlan Laboratories). Just before implantation animals are irradiated ([…]). Mice are fed ad libitum on normal chow. Treatment is initiated with oral administration (gavage) of Compound A in 1% sodium carboxymethylcellulose (Na-CMC) in 0.25% Tween®-80, or Compound B in 1% hydroxyethyl cellulose (HEC) in phosphate buffer pH 2.0 or their respective vehicle in 0.2 mL volume when tumor size reaches to 150±50 mm^3. Compound A is administered at 5 or 8 mg/kg on a Wednesday, Friday, and Monday schedule (TIW) for 2 weeks and Compound B is administered at 25 or 50 mg/kg daily for 14 days.
Tumor growth and body weight are monitored over time to evaluate efficacy and signs of toxicity. Bidimensional measurements of tumors are performed twice a week and tumor volumes are calculated based on the following formula: (Tumor Volume)=[(L)×(W2)×(Π/6)] where L is mid-axis length and W is mid-axis width. Tumor volume data are transformed to a log scale to equalize variance across time and treatment groups. The log volume data are analyzed with a two-way repeated measures analysis of variance by time and treatment using the MIXED™ procedures in SAS™ software (version 8.2). The correlation model for the repeated measures is spatial power. Test Groups are: • 1: 1% HEC in 25 mM Phosphate Buffer, pH 2, QD×14, PO/1% CMC/0.25% Tween 80/0.05% Antifoam, /W-F-M×2, PO • 3: Compound B, 50 mg/kg, QD×14, PO • 4: Compound A, 5 mg/kg, W-F-M×2, PO • 5: Compound A, 8 mg/kg, W-F-M×2, PO • 7: Compound B, 50 mg/kg, QD×14, PO/Compound A, 5 mg/kg, W-F-M×2, PO • 8: Compound B, 50 mg/kg, QD×14, PO/Compound A, 8 mg/kg, W-F-M×2, PO Group 7 and a Group 9 were combined and labelled group 7, because they received the same treatment regimen contrary to testing procedures. […] Group 2 is not shown as it was Compound B monotreatment at the same treatment regimen as Compound B in Group 6 combination treatment.
Using the repeated measures analysis previously described, a contrast statement is used to test for an interaction effect on study day 27, using the two specific treatments that were combined (Group 7).

[2] = Compound B 0.05-0.8 μM with or without 1 μM Compound A added 1 day before Compound B, 24 hours after addition
[3] = Compound B 0.05-0.8 μM with or without 1 μM Compound A added simultaneously, 24 hours

Q: For `CCN1CCN(Cc2ccc(Nc3ncc(F)c(-c4cc(F)c5nc(C)n(C(C)C)c5c4)n3)nc2)CC1` [Compound B, N-[5-(4-ethyl-piperazin-1-ylmethyl)-pyridin-2-yl]-[5-fluoro-4-(7-fluoro-3-isopropyl-2-methyl-3H-benzoimidazol-5-yl)-pyrimidin-2-yl]-amine, reference compound], which “cell cycle biomarker expression, concentration-response study” value [1, 2] is on record?
A: concentration-dependent inhibition of pRB (phospho-ser780-Rb), total RB, Topo IIa and pHH3

Q: And the “cell cycle biomarker expression, concentration-response study” value [1, 3]?
A: concentration-dependent inhibition of pRB (phospho-ser780-Rb), total RB, Topo IIa and pHH3

Q: And the IC50 (NCI-H2122)?
A: 0.45 µM

Q: And the IC50 (NCI-H441)?
A: 0.97 µM

Q: What about the “Geometric Mean tumor volume” value (NCI-H2122 xenograft; Group 03: Compound B 50 mg/kg QD×14 PO, study day 6) of the same compound?
A: 136.94 mm^3

Q: What about the “Geometric Mean tumor volume” value (NCI-H2122 xenograft; Group 03: Compound B 50 mg/kg QD×14 PO, study day 9) of the same compound?
A: 188.32 mm^3

Q: And the “Geometric Mean tumor volume” value (NCI-H2122 xenograft; Group 03: Compound B 50 mg/kg QD×14 PO, study day 13)?
A: 191.75 mm^3

Q: And the “Geometric Mean tumor volume” value (NCI-H2122 xenograft; Group 03: Compound B 50 mg/kg QD×14 PO, study day 16)?
A: 321.32 mm^3

Q: What about the “Geometric Mean tumor volume” value (NCI-H2122 xenograft; Group 03: Compound B 50 mg/kg QD×14 PO, study day 20) of the same compound?
A: 376.59 mm^3

Q: And the “Geometric Mean tumor volume” value (NCI-H2122 xenograft; Group 03: Compound B 50 mg/kg QD×14 PO, study day 23)?
A: 489.72 mm^3

Q: And the “Geometric Mean tumor volume” value (NCI-H2122 xenograft; Group 03: Compound B 50 mg/kg QD×14 PO, study day 27)?
A: 491.92 mm^3

Q: For `C[C@H](NC(=O)CCC(F)(F)F)C(=O)N[C@@H]1C(=O)N(CCO)c2ncccc2-c2ccccc21` [Compound A, 4,4,4-trifluoro-N-[(1S)-2-[[(7S)-5-(2-hydroxyethyl)-6-oxo-7H-pyrido[2,3-d][3]benzazepin-7-yl]amino]-1-methyl-2-oxo-ethyl]butanamide], which “cell cycle biomarker expression, time course study” value ([1]; 1 μM Compound A, 24 hours of treatment) is on record?
A: Marginal reductions of pHH3, Topo2A, pRB and total RB

Q: What about the “cell cycle biomarker expression, concentration-response study” value [1, 2] of the same compound?
A: no effect on the expression of these biomarkers

Q: And the “cell cycle biomarker expression, concentration-response study” value [1, 3]?
A: no effect on the expression of these biomarkers

Q: And the “Geometric Mean tumor volume” value (NCI-H2122 xenograft; Group 04: Compound A 5 mg/kg W-F-M×2 PO, study day 6)?
A: 110.18 mm^3

Q: And the “Geometric Mean tumor volume” value (NCI-H2122 xenograft; Group 04: Compound A 5 mg/kg W-F-M×2 PO, study day 9)?
A: 129.04 mm^3

Q: And the “Geometric Mean tumor volume” value (NCI-H2122 xenograft; Group 04: Compound A 5 mg/kg W-F-M×2 PO, study day 13)?
A: 189.14 mm^3

Q: What about the “Geometric Mean tumor volume” value (NCI-H2122 xenograft; Group 04: Compound A 5 mg/kg W-F-M×2 PO, study day 16) of the same compound?
A: 289.03 mm^3

Q: What about the “Geometric Mean tumor volume” value (NCI-H2122 xenograft; Group 04: Compound A 5 mg/kg W-F-M×2 PO, study day 20) of the same compound?
A: 447.05 mm^3

Q: What about the “Geometric Mean tumor volume” value (NCI-H2122 xenograft; Group 04: Compound A 5 mg/kg W-F-M×2 PO, study day 23) of the same compound?
A: 585.69 mm^3

Q: And the “Geometric Mean tumor volume” value (NCI-H2122 xenograft; Group 04: Compound A 5 mg/kg W-F-M×2 PO, study day 27)?
A: 761.24 mm^3

Q: What about the “Geometric Mean tumor volume” value (NCI-H2122 xenograft; Group 05: Compound A 8 mg/kg W-F-M×2 PO, study day 6) of the same compound?
A: 127.60 mm^3

Q: And the “Geometric Mean tumor volume” value (NCI-H2122 xenograft; Group 05: Compound A 8 mg/kg W-F-M×2 PO, study day 9)?
A: 165.23 mm^3

Q: What about the “Geometric Mean tumor volume” value (NCI-H2122 xenograft; Group 05: Compound A 8 mg/kg W-F-M×2 PO, study day 13) of the same compound?
A: 199.00 mm^3

Q: What about the “Geometric Mean tumor volume” value (NCI-H2122 xenograft; Group 05: Compound A 8 mg/kg W-F-M×2 PO, study day 16) of the same compound?
A: 301.93 mm^3

Q: And the “Geometric Mean tumor volume” value (NCI-H2122 xenograft; Group 05: Compound A 8 mg/kg W-F-M×2 PO, study day 20)?
A: 492.37 mm^3

Q: And the “Geometric Mean tumor volume” value (NCI-H2122 xenograft; Group 05: Compound A 8 mg/kg W-F-M×2 PO, study day 23)?
A: 481.31 mm^3

Q: And the “Geometric Mean tumor volume” value (NCI-H2122 xenograft; Group 05: Compound A 8 mg/kg W-F-M×2 PO, study day 27)?
A: 570.39 mm^3
